We go through 3 molecules from US6384029B1, “Optically active pyridyl-4h-1,2,4-oxdadiazine derivative and its use in the treatment of vascular diseases” (Biorex Kutató Fejlesztö RT., priority 1998, dated 2002).

Marks after values point to notes of the source that are not given here.

Assay [1] deals with coronary flow responses to serotonin (5-HT) in hearts from spontaneously hypertensive (SH) rats. Put plainly: Langendorff perfused rat heart: endothelial function before and after ischemia. Conditions: for postischemic coronary response in percentage of the preischemic vasodilator response: 10^−6 M drug in perfusate, 10^−7 M 5-HT, 10 min global ischemia, SH rat heart. The protocol:
Langendorff Perfused Rat Heart
Protocol for Assesment of Endothelial Function Before and After Ischemia
Rats were heparinised with i.p. heparin sodium (2500 IU) and anesthetized with i.p. pentobarbital (60 mg/kg). Hearts from spontaneously hypertensive (SH) rats were quickly removed and immediately perfused via the aorta using a gravity-flow, non-recirculating Langendorff apparatus (Experimetria Ltd) at a constant perfusion pressure (100 cm H2O) with Krebs-Henseleit Solution (KHS) containing in mM: NaCl 120; KCl 5.4; CaCl2 2.7; MgCl2 1.1; NaHCO3 24; D-glucose 11. The KHS was gassed with carbogen (95% O2; 5% CO2) resulting pH 7.4.
We used the so-called non-working heart model and measured the mean coronary flow by a transonic flow meter (Type T206, Transonic Systems Inc.). The flow probe was placed above the aortic cannula. Coronary flow was monitored throughout the experiment and registered by a potentiometric recorder. Hearts were allowed to beat spontaneously throughout the experiment. After 20-30 min of equilibration period the coronary flow reached a baseline value.
Endothelial function was assessed through observations of preischemic and postischemic coronary flow responses to serotonin (5-HT). In response to serotonin, the progress of dilatation of coronary artery depends on the soundness of the endothelium.
The Langendorff infusion was switched to the another column containing additional 10^−7 M serotonin (5-HT, Sigma Chemical Co.). The ensuing dilatation of coronary artery was monitored and when the steady state had been reached the 5-HT was washed out by switching back to the ordinary KHS. The heart was then subjected to a global ischemia for 10 min by the clamping the aortic cannula. At the end of the ischemic period, the heart was reperfused. When the baseline coronary flow had been reestablished, the heart was again subjected to the same protocol of sequential infusion of 5-HT and KHS as in the preischemic period. Control hearts were perfused with pure KHS and the hearts of the another three groups were perfused with KHS containing additional 10^−6 M racemic 5,6-dihydro-5-(1-piperidinyl)-methyl-3-(3-pyridyl)4H-1,2,4-oxadiazine, (−)-5,6-dihydro-5-(1-piperidinyl)-methyl-3-(3-pyridyl)4H-1,2,4-oxadiazine and (+)-5,6-dihydro-5-(1-piperidinyl)-methyl-3-(3-pyridyl)4H-1,2,4-oxadiazine, respectively. 20-30 min after the onset of hemodynamic stability, perfusion of the drugs were initiated and continued until reperfusion with the exception of the occlusion period.
The potischemic coronary responses are expressed in percentage of the preischemic vasodilator responses.

Assay [2] deals with spontaneously hypertensive rats. Briefly: Myocardial infarction in spontaneously hypertensive rats (coronary occlusion/reperfusion). As to conditions: SH rats; for Survival (%) / Infarcted area (%): oral 6 hours before occlusion (100 mg/kg), 1 h occlusion, 1 h reperfusion; for Infarcted area (%): percentage of left ventricle. The format is in vivo, rat. On the procedure: Myocardial Infarction in Spontaneously Hypertensive Rats
Myocardial ischemia was induced by a temporary occlusion of the main left coronary artery, according to Griswold et al (J. Pharmacol. Methods 1988, 20: 225-235). SH rats were anaesthetized with sodium pentobarbital (60 mg/kg i.p.). After tracheotomy, the animals were ventilated with room air by a respirator for small rodents (model: Harvard 552), with a stroke volume of 1,5-2 ml/100 g and a rate of 55 strokes/min to maintain normal pO2, pCO2 and pH parameters. The right carotid artery was catheterized and connected to a pressure transducer (P236B Stetham) for the measurement of systemic arterial blood pressure (BP) by means of a preamplifier (Hg-O2D Experimetria®). Heart rate (HR) was measured by a cardiotachometer (HR-01, Experimetria®). The electrocardiogram (ECG standard lead III) was recorded on a devices recorder (ER- 14, Micromed®) by means of subcutaneous steel needle electrodes. The chest was opened by a left thoracotomy and the heart was exteriorized by a gentle pressure on the right side of the rib cage. A 4/0 silk ligature was quickly placed under the main left coronary artery. The heart was replaced in the chest and the animal left to recover. Rectal temperature was monitored and was maintained constant at 37° C. The experiment was initiated with a 15 min stabilization period during which the observation of a sustained blood pressure less than 70 mmHg and/or the occurrence of arrhythmias lead to exclusion. Myocardial ischemia was induced with coronary artery occlusion for 1 h and reperfusion allowed for 1 hour. The drugs were administered orally 6 hours before occlusion.
Quantification of Myocardial Infarction
At the end of experiment, the heart was quickly removed. The left ventricle was then sliced into 2 mm thick sections parallel to the atrioventricular groove. The slices were incubated in a 0.1% solution of p-Nitroblue Tetrazolium (NBT) grade III, pH 7,4 for 15 min. The non-infarcted area was colored blue due to formation of a precipitate that results from reaction of NBT with dehydrogenase enzymes. Loss of these enzymes in the infarcted myocardium prevents the formation of the precipitate; thus, the infarcted area within the risk region remains pale yellow. The necrotic area was determined using computerized image analysis (COLIM, Pictron Kft), and was expressed as a percentage of the left ventricle.

In a further assay the test system is rabbit papillary muscle. Briefly: Contractile force of heart: rabbit right ventricular papillary muscle. As to conditions: for amplitude % (contractile force, % of control): cumulative addition, 15-20 min incubation; for inotropic effect (in words): between 10^−6 and 10^−4 molar range. From the text:
Effect of racemic 5,6-dihydro-5-(1-piperidinyl)-methyl-3-(3-pyridyl)4H-1,2,4-oxadiazine and its (−) and (+) enantiomers on the contractile force of heart
New Zealand white rabbits (male, 2-3 kg) were killed by a blow on the nape. The hearts were rapidly removed after opening the chest. Right ventricular papillary muscles were dissected and mounted in organ holding chambers and pre-tension of 0.5 g was applied. The superfusate contained (in mM) 120 NaCl, 5.4 KCl, 2.7 CaCl2, 1.1 MgCl2, 1.1 NaH2PO4, 24.0 NaHCO3 and 11.0 glucose. The pH of this superfusate was 7.4 at 37° C. when gassed with 95% O2 and 5% CO2. Stimulation and measurements were carried out by Isosys System of Experimetria, Budapest, Hungary. The preparations were paced by 1-ms-wide isolated constant voltage at a cycle length of 1000 ms. The amplitudes of the pulses were equal to twice as high as the diastolic threshold value, delivered through a pair of platinum electrodes. Before the start of the measurements the preparation was equilibrated for 60 min to allow the stabilization of its mechanical parameters. The drugs were added to the organ bath cumulatively, without washing out. Period of the incubation was 15-20 min. Measured parameters were: resting force (mg) and changes in the amplitude of contractile force (mg) which was expressed in % of the control.

The mark [3] stands for this setting: acute single oral 100 mg/kg 6 hours before occlusion.

As for `c1cncc(C2=NOCC(CN3CCCCC3)N2)c1` (racemic) [racemic compound, 5,6-dihydro-5-(1-piperidinyl)-methyl-3-(3-pyridyl)4H-1,2,4-oxadiazine, reference compound], the “postischemic coronary response in percentage of the preischemic vasodilator response” value in assay [1] was determined as 63.08 ± 11.7%. For the same molecule, the “Survival (%)” value in assay [2] was found to be 70.0%. Further, the “Infarcted area (%)” value in assay [2] worked out at 27.2 ± 5.8 %. Also, the “amplitude % (contractile force, % of control)” value (from here on “amplitude %”) was 83.7 ± 3.3 % in the assay with rabbit papillary muscle (10^−4 M), 87.1 ± 3.5 % with rabbit papillary muscle (10^−5 M) and 92.6 ± 5.08% with rabbit papillary muscle (10^−6 M). Further, in the assay with rabbit papillary muscle, the “inotropic effect (in words)” value is “negative inotropic effect”.
Turning to `c1cncc(C2=NOCC(CN3CCCCC3)N2)c1` (single isomer, unassigned; (+)) [(+) enantiomer, (+)-5,6-dihydro-5-(1-piperidinyl)-methyl-3-(3-pyridyl)4H-1,2,4-oxadiazine], the “postischemic coronary response in percentage of the preischemic vasodilator response” value in assay [1] is recorded as 49.78 ± 9.9%. The “Survival (%)” value in assay [2] is 75.0%. Moreover, the “Infarcted area (%)” value in assay [2] was determined as 34.5 ± 4.6%. Further, the figures for the “amplitude %” value in the assay with rabbit papillary muscle (10^−4 M), in the assay with rabbit papillary muscle (10^−5 M) and in the assay on rabbit papillary muscle (10^−6 M) were 78.4 ± 5.0 %, 79.5 ± 5.6 % and 90.1 ± 3.5%, respectively. For the same molecule, the “inotropic effect (in words)” value in the assay on rabbit papillary muscle is reported as “negative inotropic effect”.
Regarding `c1cncc(C2=NOCC(CN3CCCCC3)N2)c1` (single isomer, unassigned; (-)) [(−) enantiomer, (−)-5,6-dihydro-5-(1-piperidinyl)-methyl-3-(3-pyridyl)4H-1,2,4-oxadiazine], the “postischemic coronary response in percentage of the preischemic vasodilator response” value in assay [1] was 88.41 ± 10.9%. Moreover, the “endothelial function after ischemia (in words)” value in assay [1] (10^−6 M, 10 min of global ischemia) is “preserved endothelial function”. The “myocardial infarct size (in words)” value in assay [2] (setting [3]) is recorded as “significantly reduced myocardial infarct size”. For the same molecule, in assay [2] (setting [3]), the “survival rate (in words)” value is “increased survival rate”. Moreover, the “Survival (%)” value in assay [2] is listed as 100.0** %. Moreover, the “Infarcted area (%)” value in assay [2] worked out at 7.1 ± 2.5 %. Further, the “amplitude %” value with rabbit papillary muscle (10^−4 M) came out at 142.5 ± 4.8 %; in the assay on rabbit papillary muscle (10^−5 M), 132.8 ± 5.0 %; with rabbit papillary muscle (10^−6 M) it was 126.6 ± 5.3 %. Further, the “inotropic effect (in words)” value in the assay with rabbit papillary muscle was “positive inotropic effect”.
